A word on the IC50: it is the midpoint of a concentration-inhibition curve.

Experimental findings from publication PMC9005971, “Discovery of 2-(4-Acrylamidophenyl)-Quinoline-4-Carboxylic Acid Derivatives as Potent SIRT3 Inhibitors” (Frontiers in Chemistry, 2022) are described below.

The target of one assay is T1, SIRT3 (Homo sapiens, UniProt Q9NTG7).
T1 sequence (Q9NTG7 1-399): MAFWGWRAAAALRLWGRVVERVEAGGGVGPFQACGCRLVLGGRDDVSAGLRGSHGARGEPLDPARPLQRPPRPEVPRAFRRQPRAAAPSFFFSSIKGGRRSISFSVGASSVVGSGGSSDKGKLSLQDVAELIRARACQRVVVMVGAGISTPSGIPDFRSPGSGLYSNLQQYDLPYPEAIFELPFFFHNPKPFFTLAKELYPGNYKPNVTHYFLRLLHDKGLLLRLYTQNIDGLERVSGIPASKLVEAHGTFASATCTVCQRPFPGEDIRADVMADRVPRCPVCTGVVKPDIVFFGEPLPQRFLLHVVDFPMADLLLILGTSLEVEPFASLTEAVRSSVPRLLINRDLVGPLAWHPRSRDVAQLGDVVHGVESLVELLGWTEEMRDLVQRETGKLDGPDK
Kind of assay: SIRT3 enzyme inhibitory assay (fluorescence). It counts as biochemical. The conditions noted are these: dose of 10 μM; mean of three experiments; read-out: SIRT3 percentage inhibitory rate. The protocol:
(§1) All of the enzymatic reactions were conducted at 37°C for 30 min. […] The compounds were diluted in 10% DMSO and 5 ul of the dilution was added to each reaction mixture (50 ul). The assay was performed by quantitating the amount of fluorescent product generated from the enzyme reaction. Fluorescence intensity is then analyzed at excitation wavelength of 350–360 nm and emission wavelength of 450–460 nm on a SpectraMax M5 microtiter plate reader. The IC50 values were calculated using Prism GraphPad software.

In another assay the test system is THP-1 cells. Nature of the assay: In vitro antiproliferative CCK-8 assay, THP-1. In kind it is cell-based. Conditions: Homo sapiens, dose of 1 μM, mean of three experiments, read-out: THP-1 percentage inhibitory rate. The protocol: The proliferation of THP-1, MOLM-13, SEM and MV4-11 cells was tested by CCK-8 assay. Briefly, cells were seeded in 96-well plate with about 5 × 10^3 cells in each well. The cells were treated with P6 or Ara-C (0–10 µM) after 24 h of incubation. CCK-8 reagent ([…]) was added to each well after 72 h of incubation, and cells were incubated at 37°C for 4 h. The light absorbance at 450 nm was measured by using an Opsys microplate reader (Dynex Technologirs, Chantilly, VA, United States). Results are illustrated as percent of cell viability normalized to DMSO-treated control cells.
On the technique in general: Tetrazolium dyes change colour on reduction, which living cells bring about.

A further assay has as its target T2, SIRT1 (Homo sapiens, UniProt Q96EB6).
T2 sequence (Q96EB6 1-747): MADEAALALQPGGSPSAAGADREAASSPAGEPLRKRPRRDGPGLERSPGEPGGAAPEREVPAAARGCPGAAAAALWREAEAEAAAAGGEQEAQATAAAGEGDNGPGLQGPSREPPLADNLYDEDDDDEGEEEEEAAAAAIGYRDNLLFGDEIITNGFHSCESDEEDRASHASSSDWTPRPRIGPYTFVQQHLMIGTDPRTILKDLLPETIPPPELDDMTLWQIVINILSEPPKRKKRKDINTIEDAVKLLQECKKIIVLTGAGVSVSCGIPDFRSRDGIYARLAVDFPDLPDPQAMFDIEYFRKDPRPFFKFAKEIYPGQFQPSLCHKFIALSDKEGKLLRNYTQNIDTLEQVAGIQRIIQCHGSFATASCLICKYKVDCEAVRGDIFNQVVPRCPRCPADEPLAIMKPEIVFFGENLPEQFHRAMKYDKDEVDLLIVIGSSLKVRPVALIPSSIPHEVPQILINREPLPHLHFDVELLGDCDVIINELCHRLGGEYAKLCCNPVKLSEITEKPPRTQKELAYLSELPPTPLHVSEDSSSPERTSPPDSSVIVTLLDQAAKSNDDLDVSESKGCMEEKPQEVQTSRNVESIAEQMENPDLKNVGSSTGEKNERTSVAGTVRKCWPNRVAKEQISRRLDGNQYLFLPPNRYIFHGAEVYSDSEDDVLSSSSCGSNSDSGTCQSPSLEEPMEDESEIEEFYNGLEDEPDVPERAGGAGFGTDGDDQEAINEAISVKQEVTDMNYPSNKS
Nature of the assay: SIRT1 enzyme inhibitory assay (fluorescence). It counts as biochemical. Conditions: SIRT1 enzyme activity; for activity at 0.333 µM: 333 nM. As for the experimental part:
as §1

The target in another assay is T3, SIRT2 (Homo sapiens, UniProt Q8IXJ6).
T3 sequence (Q8IXJ6 1-389): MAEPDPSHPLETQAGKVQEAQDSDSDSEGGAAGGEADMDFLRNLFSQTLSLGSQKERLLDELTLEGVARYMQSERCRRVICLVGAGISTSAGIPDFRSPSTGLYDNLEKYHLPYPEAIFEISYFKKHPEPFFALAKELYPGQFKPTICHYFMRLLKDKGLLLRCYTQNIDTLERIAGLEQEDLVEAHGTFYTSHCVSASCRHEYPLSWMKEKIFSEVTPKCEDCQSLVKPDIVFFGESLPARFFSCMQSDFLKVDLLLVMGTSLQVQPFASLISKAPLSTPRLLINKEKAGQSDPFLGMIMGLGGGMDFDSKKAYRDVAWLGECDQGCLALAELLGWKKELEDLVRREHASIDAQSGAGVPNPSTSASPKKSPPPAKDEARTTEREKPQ
Nature of the assay: SIRT2 enzyme inhibitory assay (fluorescence). In kind it is biochemical. Conditions: for activity at 0.01 µM / activity at 0.033 µM / activity at 0.1 µM / activity at 0.333 µM / activity at 1 µM / activity at 3.3 µM / activity at 10 µM / activity at 33 µM / activity at 100 µM: SIRT2 enzyme activity; for activity at 0.01 µM: 10 nM; for activity at 0.033 µM: 33 nM; for activity at 0.1 µM: 100 nM; for activity at 0.333 µM: 333 nM. The protocol:
as §1

With `C=CC(=O)Nc1ccc(-c2cc(C(=O)N3CCN(c4ccc(OC)cc4)CC3)c3ccccc3n2)cc1` [Compound P7, N-(4-{4-[4-(4-Methoxy-phenyl)-piperazine-1-carbonyl]-quinolin-2-yl}-phenyl)-acrylamide], on SIRT3, the inhibition at 10 µM is 24.9 ± 1.47%. For the same compound, the inhibition at 1 µM in the assay with THP-1 cells came out at 12.4 ± 1.07%.

For `C=CC(=O)Nc1ccc(-c2cc(C(=O)Nc3ccc(F)cc3)c3ccccc3n2)cc1` [Compound P14, 2-(4-Acryloylamino-phenyl)-quinoline-4-carboxylic acid (4-fluoro-phenyl)-amide], the inhibition at 10 µM on SIRT3 was 26.4 ± 1.78%. In addition, the inhibition at 1 µM in the assay with THP-1 cells is 53.2 ± 4.26%.

With `C=CC(=O)Nc1ccc(-c2cc(C(=O)Nc3ccc(C)cc3)c3ccccc3n2)cc1` [Compound P12, 2-(4-Acryloylamino-phenyl)-quinoline-4-carboxylic acid p-tolylamide], on SIRT3, the inhibition at 10 µM came to 38.9 ± 2.62%. Also, the inhibition at 1 µM in the assay on THP-1 cells turned out to be 72.8 ± 3.25%.

With `C=CC(=O)Nc1ccc(-c2cc(C(=O)Nc3ccc(Cl)cc3)c3ccccc3n2)cc1` [Compound P11, 2-(4-Acryloylamino-phenyl)-quinoline-4-carboxylic acid (4-chloro-phenyl)-amide], the inhibition at 10 µM on SIRT3 was 35.7 ± 1.54%. In the assay with THP-1 cells, the inhibition at 1 µM is 58 ± 2.08%.

In the case of `C=CC(=O)Nc1ccc(-c2cc(C(=O)Nc3ccc(CCCCC)cc3)c3ccccc3n2)cc1` [Compound P18, 2-(4-Acryloylamino-phenyl)-quinoline-4-carboxylic acid (4-pentyl-phenyl)-amide], the inhibition at 10 µM at SIRT3 was determined as 30.6 ± 2.89%. Also, the inhibition at 1 µM in the assay with THP-1 cells was found to be 30 ± 1.39%.

`C=CC(=O)Nc1ccc(-c2cc(C(=O)N3CCN(C(C)C)CC3)c3ccccc3n2)cc1` [Compound P3, N-{4-[4-(4-Isopropyl-piperazine-1-carbonyl)-quinolin-2-yl]-phenyl}-acrylamide]: the inhibition at 10 µM on SIRT3 amounted to 30.6 ± 2.45%. For the same compound, in the assay on THP-1 cells, the inhibition at 1 µM was determined as 8.78 ± 0.37%.

With `C=CC(=O)Nc1ccc(-c2cc(C(=O)Nc3cc(OC)cc(OC)c3)c3ccccc3n2)cc1` [Compound P15, 2-(4-Acryloylamino-phenyl)-quinoline-4-carboxylic acid (3,5-dimethoxy-phenyl)-amide], at SIRT3, the inhibition at 10 µM was 42.8 ± 1.26%. Further, the inhibition at 1 µM in the assay with THP-1 cells is 49.6 ± 2.52%.

Consider `C=CC(=O)Nc1ccc(-c2cc(C(=O)Nc3ccc(OCC)cc3)c3ccccc3n2)cc1` [Compound P17, 2-(4-Acryloylamino-phenyl)-quinoline-4-carboxylic acid (4-ethoxy-phenyl)-amide], for which the inhibition at 10 µM at SIRT3 is 29.6 ± 1.43%. Besides, in the assay on THP-1 cells, the inhibition at 1 µM was found to be 13.8 ± 1.01%.

Turning to `C=CC(=O)Nc1ccc(-c2cc(C(=O)N3CCN(c4ccc(Cl)cc4)CC3)c3ccccc3n2)cc1` [Compound P5, N-(4-{4-[4-(4-Chloro-phenyl)-piperazine-1-carbonyl]-quinolin-2-yl}-phenyl)-acrylamide], the inhibition at 10 µM on SIRT3 stood at 22.6 ± 1.87%. In addition, in the assay with THP-1 cells, the inhibition at 1 µM was found to be 56 ± 2.66%.

Take `C=CC(=O)Nc1ccc(-c2cc(C(=O)N3CCN(C(=O)OC(C)(C)C)CC3)c3ccccc3n2)cc1` [Compound P2, 4-[2-(4-Acryloylamino-phenyl)-quinoline-4-carbonyl]-piperazine-1-carboxylic acid tert-butyl ester]: the inhibition at 10 µM at SIRT3 is 23.5 ± 2.13%. Further, the inhibition at 1 µM in the assay with THP-1 cells was 26.4 ± 1.55%.

`NC(=O)c1cccnc1` [Nicotinamide, reference compound]: the activity at 0.01 µM at SIRT1 (10 nM, Repeat2) amounted to 98%. In addition, the activity at 0.033 µM on SIRT1 (33 nM, Repeat2) turned out to be 99%. The activity at 0.1 µM on SIRT1 (100 nM, Repeat1) was 98%. At SIRT1 (Repeat1), the activity at 0.333 µM is 99%, the activity at 3.3 µM is 93%, the activity at 10 µM was determined as 79% and the activity at 33 µM came out at 59%. Moreover, the activity at 100 µM at SIRT1 (Repeat1) was found to be 10%. On SIRT1 (Repeat2), the activity at 0.333 µM was found to be 97%, the activity at 3.3 µM was 96%, the activity at 10 µM turned out to be 73% and the activity at 33 µM is 52%. In addition, the activity at 100 µM on SIRT1 (Repeat2) came to 17%. Also, at SIRT1 (1 µM, Repeat1), the activity at 1 µM was found to be 100%. Further, on SIRT2 (Repeat1), the activity at 0.01 µM was 100%, the activity at 0.033 µM was 99%, the activity at 0.1 µM was 97% and the activity at 0.333 µM was 100%. For the same compound, at SIRT2 (Repeat1), the activity at 3.3 µM was 92%, the activity at 10 µM amounted to 79%, the activity at 33 µM amounted to 39% and the activity at 100 µM was found to be 17%. At SIRT2 (Repeat2), the activity at 0.01 µM was determined as 99%, the activity at 0.033 µM came to 98%, the activity at 0.333 µM worked out at 100% and the activity at 1 µM was found to be 99%. Besides, on SIRT2 (Repeat2), the activity at 3.3 µM was 91%, the activity at 10 µM amounted to 69%, the activity at 33 µM is 43% and the activity at 100 µM worked out at 12%.

As for `C=CC(=O)Nc1ccc(-c2cc(C(=O)Nc3ccc(N4CCN(C)CC4)cc3)c3ccccc3n2)cc1` [Compound P19], on SIRT2 (Repeat1), the activity at 0.01 µM turned out to be 101%, the activity at 0.033 µM was determined as 99%, the activity at 0.1 µM was 101% and the activity at 0.333 µM was 96%. At SIRT2 (Repeat1), the activity at 1 µM turned out to be 97%, the activity at 3.3 µM was found to be 100%, the activity at 10 µM was 91% and the activity at 33 µM is 79%. In addition, at SIRT2 (Repeat1), the activity at 100 µM stood at 34%. In addition, at SIRT2 (Repeat2), the activity at 0.01 µM was found to be 99%, the activity at 0.033 µM stood at 99%, the activity at 0.1 µM stood at 101% and the activity at 0.333 µM was 98%. Moreover, at SIRT2 (Repeat2), the activity at 1 µM is 98%, the activity at 3.3 µM amounted to 99%, the activity at 10 µM was found to be 86% and the activity at 33 µM amounted to 76%. In addition, at SIRT2 (Repeat2), the activity at 100 µM was found to be 28%. Also, the IC50 at SIRT2 (mean of two experiments) came to 63.6 ± 4.2 µM.
